Measurements from patent US11358960B2, “Pyrazol-3-ones that activate pro-apoptotic BAX” (Dana-Farber Cancer Institute, Inc., priority 2011, dated 2022).

What was measured:
[1] = target: T1, MCL-1 (Homo sapiens, UniProt Q07820); assay: Competitive FPA with FITC-BIM SAHB and MCL-1; format: binding
T1 construct: serial dilutions of full-length BAX, BCL-XLΔC, MCL-1ΔNΔC, or BFL-1/A1ΔC; GST (N, cleaved yes); made in house; host or cells: Escherichia coli BL21 (DE3)
Text: (§1) The BH3 binding pocket of anti-apoptotic targets shares topographic similarities with the BH3 trigger site on BAX, including a hydrophobic groove that engages the hydrophobic face of BH3 helices and a perimeter of similarly oriented charged and polar residues that are complementary to discrete residues of the hydrophilic BH3 interface. The two BH3 binding sites differ in their geographic location, pocket depth, and functionality.
(§2) BCL-2 family protein production. Recombinant and tagless full-length BAX, BCL-XLΔC, MCL-1ΔNΔC, and BFL-1/A1ΔC were expressed and purified as previously reported^17,35. Transformed Escherichia coli BL21 (DE3) were cultured in ampicillin-containing Luria Broth and protein expression was induced with 0.5 mM isopropyl β-D-1-thiogalactopyranoside (IPTG). The bacterial pellets were resuspended in buffer (250 mM NaCl, 20 mM Tris, complete protease inhibitor tablet, pH 7.2), sonicated, and after centrifugation at 45,000×g for 45 min, the supernatants were applied to glutathione-agarose columns (Sigma) for GST-BCL-XLΔC, MCL-1ΔNΔC, and BFL-1/A1ΔC, or a chitin column (BioLabs) for Intein-BAX. […]
(§3) Fluorescence polarization binding assays. Fluorescence polarization assays (FPA) were performed as previously described^35,36.

[2] = target: T2, recombinant full-length BAX (Homo sapiens, UniProt Q07812); assay: Competitive fluorescence polarization assay: displacement of FITC-BIM SAHB from BAX; format: binding; conditions: positive control
T2 construct: Recombinant and tagless full-length BAX; made in house; host or cells: Escherichia coli BL21 (DE3)
Protocol: BCL-2 family protein production. Recombinant and tagless full-length BAX, BCL-XLΔC, MCL-1ΔNΔC, and BFL-1/A1ΔC were expressed and purified as previously reported^17,35. Transformed Escherichia coli BL21 (DE3) were cultured in ampicillin-containing Luria Broth and protein expression was induced with 0.5 mM isopropyl β-D-1-thiogalactopyranoside (IPTG). The bacterial pellets were resuspended in buffer (250 mM NaCl, 20 mM Tris, complete protease inhibitor tablet, pH 7.2), sonicated, and after centrifugation at 45,000×g for 45 min, the supernatants were applied to glutathione-agarose columns (Sigma) for GST-BCL-XLΔC, MCL-1ΔNΔC, and BFL-1/A1ΔC, or a chitin column (BioLabs) for Intein-BAX. On-bead digestion of GST-tagged protein was accomplished by overnight incubation at room temperature in the presence of thrombin (75 units) in PBS (3 mL), whereas the intein tag was cleaved from BAX by overnight incubation of the chitin beads at 4° C. with 50 mM DTT. BCL-XLΔC, MCL-1ΔNΔC, and BFL-1/A1ΔC were purified by size exclusion chromatography (SEC) using 150 mM NaCl, 50 mM Tris, pH 7.4 buffer conditions, and full-length monomeric BAX protein isolated by SEC using a Superdex-75 column (GE Healthcare) and 20 mM Hepes pH 7.2, 150 mM KCl buffer conditions.
as §3

[3] = target: T3, BCL-XL (Homo sapiens, UniProt Q07817); assay: Competitive FPA with FITC-BIM SAHB and BCL-XL; format: binding
T3 construct: serial dilutions of full-length BAX, BCL-XLΔC, MCL-1ΔNΔC, or BFL-1/A1ΔC; GST (N, cleaved yes); made in house; host or cells: Escherichia coli BL21 (DE3)
Text: as §1, §2, §3

[4] = target: T4, BFL-1/A1 (Homo sapiens, UniProt Q16548); assay: Competitive FPA with FITC-BIM SAHB and BFL-1/A1; format: binding
T4 construct: serial dilutions of full-length BAX, BCL-XLΔC, MCL-1ΔNΔC, or BFL-1/A1ΔC; GST (N, cleaved yes); made in house; host or cells: Escherichia coli BL21 (DE3)
T4 sequence (Q16548 1-151 limits assumed): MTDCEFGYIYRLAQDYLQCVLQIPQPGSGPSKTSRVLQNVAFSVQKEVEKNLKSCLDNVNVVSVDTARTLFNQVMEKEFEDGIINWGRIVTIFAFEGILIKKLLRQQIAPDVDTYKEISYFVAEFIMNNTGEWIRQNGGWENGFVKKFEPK
Text: as §1, §2, §3

[5] = tested on: leukemia cells; assay: Leukemia cell viability (anti-leukemic activity); format: cell-based; conditions: FIGS. 15-17
[6] = tested on: Bax−/−Bak−/− MEFs; assay: Cell viability assay in Bax-/-Bak-/- MEFs (CellTiter-Glo); format: cell-based, mouse; conditions: 24 hours
[7] = tested on: DHL5 diffuse large B-cell lymphoma (DLBCL) cells; assay: DHL5 cell viability assay (CellTiter-Glo); format: cell-based; conditions: for cell viability: single agent, 24 hours
[8] = tested on: Bak−/− MEFs; assay: Cell viability assay in Bak-/- MEFs (CellTiter-Glo); format: cell-based, mouse; conditions: Bak−/− MEFs (express only BAX), 24 hours
[9] = tested on: Bak−/− MEFs; assay: Light microscopy (live cell imaging) of Bak-/- MEFs; format: cell-based, mouse; conditions: BAM7 15 μM, time lapse
Protocol: Light microscopy. MEFs (5,000 cells/well) were plated for 24 hours on glass bottom culture dishes (MatTek Corp., MA) and then incubated with BAM7 (15 μM) or vehicle (0.15% DMSO). Live cell imaging was performed using a TE2000-E2 Nikon microscopy equipped with a temperature and CO2-controlled chamber that maintained an atmosphere of 3-5% humidified CO2 at 37° C. A Hamamatsu Orca ER digital CCD camera was used to capture images at 20× magnification for 24 hours at 20 min intervals. Acquisition, hardware control, and image analysis was performed using Nikon NIS-Elements software.

[10] = tested on: MCL-1 dependent leukemia cell line; assay: Caspase 3/7 and cell death in isogenic MCL-1 dependent leukemia cell line; format: cell-based
[11] = tested on: BCL-XL-dependent leukemia cell line; assay: Caspase 3/7 and cell death in BCL-XL-dependent leukemia cell line; format: cell-based

T3 sequence (Q07817 1-212 limits assumed, species assumed): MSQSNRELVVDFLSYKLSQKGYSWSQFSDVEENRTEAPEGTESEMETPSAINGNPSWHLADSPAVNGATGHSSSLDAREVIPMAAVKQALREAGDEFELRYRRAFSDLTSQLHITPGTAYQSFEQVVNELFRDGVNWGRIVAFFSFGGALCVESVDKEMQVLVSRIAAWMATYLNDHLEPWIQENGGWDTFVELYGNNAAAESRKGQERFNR
T1 sequence (Q07820 170-327 limits assumed, species assumed): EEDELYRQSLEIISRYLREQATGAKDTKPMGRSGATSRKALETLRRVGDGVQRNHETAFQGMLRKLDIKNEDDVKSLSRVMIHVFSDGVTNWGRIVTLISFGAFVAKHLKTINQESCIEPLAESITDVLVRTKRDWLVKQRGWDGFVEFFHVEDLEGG
T2 sequence (Q07812 whole entry): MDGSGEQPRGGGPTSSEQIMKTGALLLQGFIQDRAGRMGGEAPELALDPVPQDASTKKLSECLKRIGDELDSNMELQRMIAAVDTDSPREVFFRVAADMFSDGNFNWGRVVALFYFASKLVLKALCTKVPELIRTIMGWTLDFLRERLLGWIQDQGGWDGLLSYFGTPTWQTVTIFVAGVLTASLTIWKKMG

IC50 ([1]; competitive FPA, read-out: IC50, competition with FITC-BIM SAHB for binding to MCL-1)	IC50 [2]	IC50 ([3]; competitive FPA, read-out: IC50, competition with FITC-BIM SAHB for binding to BCL-XL)	IC50 ([4]; competitive FPA, read-out: IC50, competition with FITC-BIM SAHB for binding to BFL-1/A1)	Compound	anti-leukemic activity [5]	competition with FITC-BIM SAHB for MCL-1 (in words) ([1]; up to 50 μM dosing)	cell viability [6]	effect of BAM7 on the response to ABT-737 ([7]; BAM7 10 μM plus ABT-737)	cell viability [7]	competition with FITC-BIM SAHB for BCL-XL (in words) ([3]; up to 50 μM dosing)	cell viability [8]	competition with FITC-BIM SAHB for BFL-1/A1 (in words) ([4]; up to 50 μM dosing)	morphologic features of apoptosis [9]	cell death [10]	cell death [11]	effect of added ABT-737 on the response to BAM7 ([7]; subcytotoxic dose of ABT-737 added to BAM7)
136 nM	314 nM	572 nM	603 nM	CC[C@H](C)[C@H](NC(C)=O)C(=O)N[C@@H](Cc1c[nH]c2ccccc12)C(=O)N[C@H](C(=O)N[C@@H](C)C(=O)N[C@@H](CCC(N)=O)C(=O)N[C@@H](CCC(=O)O)C(=O)N[C@@H](CC(C)C)C(=O)N[C@@H](CCCNC(=N)N)C(=O)N[C@@]1(C)CCCC=CCCC[C@@](C)(C(=O)N[C@@H](Cc2ccccc2)C(=O)N[C@@H](CC(N)=O)C(=O)N[C@@H](C)C(=O)N[C@@H](Cc2ccc(O)cc2)C(=O)N[C@@H](Cc2ccc(O)cc2)C(=O)N[C@@H](C)C(=O)N[C@@H](CCCNC(=N)N)C(=O)N[C@@H](CCCNC(=N)N)C(N)=O)NC(=O)[C@H](CC(=O)O)NC(=O)CNC(=O)[C@H]([C@@H](C)CC)NC1=O)[C@@H](C)CC [Ac-BIM SAHB, reference compound]												
				CCOc1ccccc1NN=C1C(=O)N(c2nc(-c3ccccc3)cs2)N=C1C [BAM7, 4-(2-(2-ethoxyphenyl)hydrazono)-3-methyl-1-(4-phenylthiazol-2-yl)-1H-pyrazol-5(4H)-one]	anti-leukemic activity	little to no anti-apoptotic binding interactions	did not affect the viability	sensitized DHL5 cells to ABT-737	dose-responsive impairment of cell viability	little to no anti-apoptotic binding interactions	dose-responsively impaired the viability	little to no anti-apoptotic binding interactions	characteristic microscopic features of apoptosis			
				CN(C)CC[C@H](CSc1ccccc1)Nc1ccc(S(=O)(=O)NC(=O)c2ccc(N3CCN(Cc4ccccc4-c4ccc(Cl)cc4)CC3)cc2)cc1[N+](=O)[O-] [ABT-737, reference compound]					relatively resistant					significant resistance	induces cell death	further sensitized the cells to BAM7
